According to patent US11628146B2, “Estrogen receptor ligand treatment for neurodegenerative diseases” (The Regents of the University of California, priority 2014, dated 2023):
“Also recorded” adds a separate entry of the source.

What was measured:
[1] = tested on: EAE in C57BL/6 mice; assay: Standard EAE clinical score (0-5 scale), MOG 35-55 induced EAE, C57BL/6 mice; assay type: in vivo, mouse; design: key to Standard EAE Score: n.s. = not significant; *p < 0.05; ***p = 0.0004; ****p < 0.0001; n.i. = not informative; conditions: for Standard EAE Score: significance vs vehicle; for Standard EAE clinical score: vs miglyol vehicle
Description: (§1) Animals. C57BL/6 and NOD mice 8 weeks old were purchased from Jackson Laboratories (Bar Harbor, Me.). Animals were maintained under environmentally controlled conditions in a 12-hour light/dark cycle with access to food and water ad libitum. All procedures were done in accordance with the guidelines of the National Institutes of Health and the Chancellor's Animal Research Committee of the University of California, Los Angeles Office for the Protection of Research Subjects.
(§2) Reagents. AC-186 was dissolved in either Miglyol 812N liquid oil (Sasol North America) or sesame oil (Sigma Aldrich) as following concentration; 1.5 mg/mL for 3 mg/kg group, 5 mg/mL for 10 mg/kg group, and 15 mg/mL for 30 mg/kg group. Diarylpropionitrile (DPN, Tocris Biosciences) was dissolved in 10% molecular-grade ethanol and diluted with 90% of either Miglyol 812N liquid oil or sesame oil.
(§3) EAE and Treatments. Animals were injected subcutaneously with Myelin Oligodendrocyte Glycoprotein (MOG), amino acids 35-55 (200 μg/animal, American Peptides), emulsified in complete Freund's adjuvant (CFA) and supplemented with Mycobacterium tuberculosis H37ra (300 μg/animal, Difco Laboratories), over two sites drained by left inguinal and auxiliary lymph nodes in a total volume of 0.1 ml/mouse. One week later, a booster immunization was delivered over contra lateral lymph nodes. Pertussis toxin (500 ng/mouse) (List Biological Laboratories, Inc.) was injected intraperitoneally on days 0 and 2. Animals were monitored daily for EAE signs based on a standard EAE 0-5 scale scoring system: 0—healthy, 1—complete loss of tail tonicity, 2—loss of righting reflex, 3—partial paralysis, 4—complete paralysis of one or both hind limbs, and 5—moribund. Animals received 0.05 ml of either of 1.5, 5, 15 mg/mL AC-186, vehicle (sesame oil or Miglyol 812N liquid oil), or DPN (8 mg/kg/day) via subcutaneous injections every other day. Animals were treated with AC-186 or vehicle after EAE induction. Specifically, treatment was initiated at the first clear signs of clinical disease (EAE day 13-15), and continued to the endpoint of the experiment.

[2] = tested on: EAE in NOD mice; assay: Standard EAE clinical score (0-5 scale), MOG-induced EAE, NOD mice; assay type: in vivo, mouse; design: key to Standard EAE Score: n.s. = not significant; *p < 0.05; ***p = 0.0004; ****p < 0.0001; n.i. = not informative; conditions: for Standard EAE Score: significance vs vehicle
Description: as §1, §2, §3

In the case of Oc1ccc(C2(c3ccccc3F)CCC(F)(F)CC2)cc1 [AC-186], the “Standard EAE Score” value ([1]; C57BL/6 F, AC186 3 mg/kg, sesame vehicle) is reported as “n.s”, the “Standard EAE Score” value ([1]; C57BL/6 F, AC186 10 mg/kg, miglylol vehicle) is reported as “**** (less robust that 30 mg/kg) (****p < 0.0001)” and the “Standard EAE Score” value ([1]; C57BL/6 F, AC186 10 mg/kg, sesame vehicle) is reported as “n.s”. The “Standard EAE Score” value ([1]; C57BL/6 F, AC186 30 mg/kg, miglylol vehicle) was “**** (****p < 0.0001)”, the “Standard EAE Score” value ([1]; C57BL/6 F, AC186 30 mg/kg, sesame vehicle) was “* (*p < 0.05)” and the “Standard EAE Score” value ([1]; C57BL/6 M, AC186 30 mg/kg, miglylol vehicle) was “**** (****p < 0.0001)”. For the same molecule, the “Standard EAE Score” value ([1]; C57BL/6 M, AC186 30 mg/kg, sesame vehicle) was “n.s”, the EAE score ([1]; female C57BL/6, 3 mg/kg s.c. every other day in sesame oil, vs vehicle) was “no effect on the EAE score” and the “Standard EAE clinical score” value ([1]; female C57BL/6, 10 mg/kg in miglyol) was “significant efficacy in ameliorating the standard EAE clinical scores; also recorded: ameliorated”. For the same molecule, the EAE score ([1]; female C57BL/6, 10 mg/kg s.c. every other day in sesame oil, vs vehicle) was “a trend toward improvement”, the “Standard EAE clinical score” value ([1]; female C57BL/6, 30 mg/kg in miglyol) was “significant efficacy in ameliorating the standard EAE clinical scores; also recorded: beneficial effects; also recorded: ameliorated” and the EAE score ([1]; female C57BL/6, 30 mg/kg s.c. every other day in sesame oil, from first clinical signs, vs vehicle) was “a significant effect in ameliorating standard EAE clinical scores; also recorded: displayed the best EAE score; also recorded: significantly less severe EAE scores”. The EAE score ([1]; male C57BL/6, 30 mg/kg in miglyol, vs miglyol alone) was “performed significantly better; also recorded: better EAE scores”, the EAE score ([1]; male C57BL/6, 30 mg/kg in sesame oil, vs sesame oil alone) was “did not perform significantly better; also recorded: did not display efficacy” and the “Standard EAE Score” value ([2]; NOD F, AC186 10 mg/kg, miglylol vehicle) was “**** (****p < 0.0001)”. The “Standard EAE Score” value ([2]; NOD F, AC186 30 mg/kg, miglylol vehicle) was “**** (****p < 0.0001)”, the “Standard EAE Score” value ([2]; NOD F, AC186 30 mg/kg, sesame vehicle) was “n.s” and the “Standard EAE Score” value ([2]; NOD M, AC186 10 mg/kg, miglylol vehicle) was “n.s”. The “Standard EAE Score” value ([2]; NOD M, AC186 30 mg/kg, miglylol vehicle) was “**** (****p < 0.0001)”, the EAE score ([2]; NOD females, 10 mg/kg in miglyol, vs vehicle, 10 mg/kg) was “improved EAE scores; also recorded: better EAE scores” and the EAE score ([2]; NOD females, 30 mg/kg in miglyol, vs vehicle, 30 mg/kg) was “improved EAE scores; also recorded: better EAE scores”. The EAE score ([2]; NOD females, high dose AC-186 in sesame oil carrier) was “did not ameliorate EAE scores; also recorded: no protection was observed”, the EAE score ([2]; NOD males, 10 mg/kg in miglyol, vs vehicle) was “not” and the EAE score ([2]; NOD males, 30 mg/kg in miglyol, vs vehicle, 30 mg/kg) was “improved EAE scores; also recorded: ameliorated”.
